Assay [1] deals with α-amylase. Description: α-amylase inhibition assay. It is filed as biochemical. Particulars: sample described as 'SR (compound 4a) methanolic extract'.
Assay [2] concerns the target α-glucosidase. The assay is described as follows: α-glucosidase inhibition assay. Particulars: sample described as 'SR (compound 4a) methanolic extract'. It is filed as biochemical.

Values after ≈ are worked out from the molar mass of the structure shown.

The IC50 is the concentration that gives 50% inhibition. With `C(#CC(c1ccccc1)N1CCOCC1)c1ccccc1` (centres unmarked) [4a, 4-(1,3-diphenylprop-2-yn-1-yl)morpholine], the IC50 was found to be 112.98 µg/mL (≈ 407 µM) in assay [1] and 111.42 µg/mL (≈ 402 µM) in assay [2].

Source of the values: paper PMC12626088 (RSC Advances, 2025).
